From US11339405B2, “Kit and method for producing induced embryonic neural progenitors” (priority 2017, dated 2022)
Entries after “also recorded” stand apart in the source; their conditions may differ.

Columns and labels:
AD-iENP-derived neurons = assay: pTAU (AT8) ICC in AD-iENP-derived neurons, AD drug testing; type: cell-based, human; details: AD-iENP-derived neurons (AD1, APOE4/E4), treated for 2 days at 7 days after cortical differentiation; vs DMSO
Procedure: General neural differentiation was examined using differentiation media [Neurobasal, B27 supplement, 1% NEAA, 2 mM glutamine, 1 mM sodium pyruvate (Invitrogen), 300 μg/ml dbcAMP, 50 μM ascorbic acid (Sigma), 20 ng/ml BDNF, 20 ng/ml GDNF, 50 ng/ml NGF (Peprotech)], while specific neuronal differentiation were examined using cortical neuronal differentiation media, dopaminergic neuronal differentiation media, and PNS neuronal differentiation media [cortical neuronal differentiation media: Neurobasal, N2 supplement, B27 supplement (Invitrogen), 100 ng/ml SHH, 125 ng/ml Noggin, 250 ng/ml DKK1, 10 ng/ml BDNF, 10 ng/ml bFGF (R&D), 2 μM XAV939, 100 nM LDN93189, 10 μM SB431542, 200 μM ascorbic acid, 200 μM dbcAMP (Sigma); dopaminergic neuronal differentiation media: DMEM/F12, N2 supplement (Invitrogen), 20 ng/ml BDNF, 200 ng/ml SHH, 100 ng/ml FGF8P (R&D), 200 μM ascorbic acid (Sigma); PNS neuronal differentiation media: DMEM/F12, N2 supplement (Invitrogen), 3 μM CHIR99021, 10 μM SU5402, 10 μM DAPT, 200 μM dbcAMP]. For AD drug testing, AD- and control-iENPs were subjected to cortical differentiation. At 7 days after differentiation, cells were treated with SB415286, 1-Azakenpaullone (Selleckchem), or DMSO (Sigma) for 2 days. […]
The ICC procedure was performed as previously described. […] Signals were recorded using a Zeiss microscope and Spot software. […]

HD-iENPs = assay: γH2AX ICC (DNA damage) in HD-iENPs; type: cell-based, human; details: vs vehicle (DMSO)
HD-iENP-derived neurons = assay: γH2AX ICC (DNA damage) in HD-iENP-derived neurons; type: cell-based, human; details: neuronal derivatives of HD-iENPs; vs vehicle (DMSO)
[1] = system: TTX-sensitive sodium channels; type: cell-based, human
[2] = system: FBs infected with virus encoding the 6 or 7TF combinations

In the case of `O=C1Cc2c([nH]c3ccc(Br)cc23)-c2ncccc2N1` [1-Aza, 1-Azakenpaullone], the “pTAU aggregation / pTAU expression” value (AD-iENP-derived neurons) is reported as “significantly reduced”.
With `CCNC(=O)[C@H]1O[C@@H](n2cnc3c(N)nc(NCCc4ccc(CCC(=O)O)cc4)nc32)[C@H](O)[C@@H]1O` [CGS21680] the “γH2AX expression (DNA damage)” value (HD-iENPs) was “significantly decreased; also recorded: decreased DNA damage” and the “γH2AX expression (DNA damage)” value (HD-iENP-derived neurons) was “significantly decreased; also recorded: decreased DNA damage”.
`O=C1NC(=O)C(c2ccccc2[N+](=O)[O-])=C1Nc1ccc(O)c(Cl)c1` [SB415286] was tested, and the “pTAU aggregation / pTAU expression” value (AD-iENP-derived neurons) was “significantly reduced”.
For `NC1=N[C@H](O)[C@H]2[C@H]3O[C@]4(O)O[C@@H]([C@@H](O)[C@@]2(N1)[C@@H]4O)[C@]3(O)CO` [TTX, tetrodotoxin], the “inward Na+ currents” value [1] was “could be blocked” and the “sodium channel-mediated inward currents” value [1] was “blocked”.
In the case of RepSox, the “efficiency of iENP-6F generation” value [2] is reported as “significantly improved”.
